Data set [1] concerns JC murine adenocarcinoma cells in Balb/c mice. Description: JC mammary adenocarcinoma syngeneic tumor model. It is filed as in vivo. The conditions noted are these: for inhibition of tumor growth relative to controls: 50 mg/kg IP every-other day, Balb/c mice; for In vivo activity: JC tumor model, intraperitoneal (ip) or oral (po). The procedure:
FIG. 1. Inhibition of tumor growth by SK inhibitors. Balb/c female mice were injected subcutaneously with JC murine adenocarcinoma cells suspended in PBS. After palpable tumor growth, animals were treated by intraperitoneal injection of either 0.1 mL of 50% DMSO (control, circles) or 50 mg/kg of Compound 8 (squares) or Compound 73 (triangles) on odd numbered days. Whole body weight and tumor volume measurement were performed for up to 18 days. * p<0.05. Inset: Averaged body weights of mice from each group during course of study.
FIG. 2. Dose-response relationships for inhibition of tumor growth by Compound 8. Balb/c female mice were injected subcutaneously with JC cells suspended in PBS. After palpable tumor growth, animals were treated by oral gavage of either 100 μl of PEG400 (control, circles) or Compound 8 at 3.5 mg/kg (diamonds), 10 mg/kg (inverted triangles), 35 mg/kg (triangles) or 100 mg/kg (squares) on odd numbered days. Whole body weight and tumor volume measurement were performed for up to 18 days.
The SK inhibitors Compounds 8 and 73 were dissolved in 50% DMSO and administered by intraperitoneal injection to mice every-other day at a dose of 50 mg/kg. Body weights and tumor volumes were monitored daily.

The next data set deals with Hep-G2 (liver). Description: Cytotoxicity, sulforhodamine B, 48 h. The format is cell-based. The conditions noted are these: Homo sapiens, HepG2, mean ± sd.
Another data set relates to Caco-2 (colon). Description: Cytotoxicity, sulforhodamine B, 48 h. It is filed as cell-based. The conditions noted are these: Homo sapiens, mean ± sd.
Another data set in a line: physchem. It is filed as physicochemical. The conditions noted are these: aqueous with cosolvent or surfactant or cyclodextrin, in DMSO: PBS (IP) or PEG400 (oral).
A further data set deals with T24 (bladder). Nature of the data set: Cytotoxicity, sulforhodamine B, 48 h. The format is cell-based. To be noted: Homo sapiens, mean ± sd.
Another data set relates to 1025LU (Melanoma). Description: Cytotoxicity, sulforhodamine B, 48 h. It is filed as cell-based. To be noted: Homo sapiens, mean ± sd. The procedure:
(§1) To further assess the biological efficacies of the Compounds in intact cells, each Compound was evaluated for cytotoxicity using human cancer cell lines. These experiments followed methods that have been extensively used. Cell lines tested included MCF-7 human breast adenocarcinoma cells. The indicated cell lines were treated with varying doses of the test Compound for 48 h. Cell survival was then determined using the SRB binding assay (Skehan et al., 1990, J Natl Cancer Inst 82: 1107), and the concentration of compound that inhibited proliferation by 50% (the IC50) was calculated. Values (in μM) represent the mean±sd for replicate trials.

Another data set relates to HT-29 (colon). Nature of the data set: Cytotoxicity, sulforhodamine B, 48 h. It is filed as cell-based. The conditions noted are these: Homo sapiens, mean ± sd. The procedure:
as §1

The test system of the next data set is SK-OV-3 (ovary). Description: Cytotoxicity, sulforhodamine B, 48 h. It is filed as cell-based. The conditions noted are these: Homo sapiens, mean ± sd. The procedure:
as §1

Another data set concerns MDA-MB-231 (breast, ER−). Nature of the data set: Cytotoxicity, sulforhodamine B, 48 h. It is filed as cell-based. To be noted: Homo sapiens, mean ± sd. As for the experimental part:
as §1

The next data set concerns A-498 (Kidney). Description: Cytotoxicity, sulforhodamine B, 48 h. The conditions noted are these: Homo sapiens, A498, mean ± sd. The format is cell-based. The procedure: as §1
For the next data set, the system named is DU145 (prostate). Description: Cytotoxicity, sulforhodamine B, 48 h. The format is cell-based. The conditions noted are these: Homo sapiens, DU-145, mean ± sd. As for the experimental part:
as §1

The test system of data set [2] is female Swiss-Webster mice. Description: In vivo toxicity in mice. To be noted: orally up to at least 100 mg/kg.
For data set [3], the system named is MCF-7 human breast adenocarcinoma cells. Description: Cytotoxicity, SRB assay, 48 h. The format is cell-based. To be noted: Homo sapiens, MCF7. As for the experimental part: as §1
(In SRB staining, fixed cells bind dye roughly in proportion to their protein.)

For the next data set, the system named is Panc-1 (pancreas). Nature of the data set: Cytotoxicity, sulforhodamine B, 48 h. The format is cell-based. The conditions noted are these: Homo sapiens, mean ± sd.
For a further data set, the target named is P38 MAP kinase 1 (Homo sapiens, UniProt Q16539). Nature of the data set: Kinase selectivity panel. The format is biochemical. To be noted: read-out: percent of control activity of P38 MAP kinase 1. As for the experimental part: (§2) A common problem with previous attempts to develop protein kinase inhibitors is the lack of selectivity toward the target kinase since the majority of these compounds interact with nucleotide-binding domains that are highly conserved among kinases. To determine if compound of this invention are non-selective kinase inhibitors, the effects of the SK inhibitor, Compound 73, on a diverse panel of 20 purified kinases was determined. The compound was tested at a single concentration of 50 μM.
Sequence of P38 MAP kinase 1 (Q16539 whole entry, the tested form may be a part): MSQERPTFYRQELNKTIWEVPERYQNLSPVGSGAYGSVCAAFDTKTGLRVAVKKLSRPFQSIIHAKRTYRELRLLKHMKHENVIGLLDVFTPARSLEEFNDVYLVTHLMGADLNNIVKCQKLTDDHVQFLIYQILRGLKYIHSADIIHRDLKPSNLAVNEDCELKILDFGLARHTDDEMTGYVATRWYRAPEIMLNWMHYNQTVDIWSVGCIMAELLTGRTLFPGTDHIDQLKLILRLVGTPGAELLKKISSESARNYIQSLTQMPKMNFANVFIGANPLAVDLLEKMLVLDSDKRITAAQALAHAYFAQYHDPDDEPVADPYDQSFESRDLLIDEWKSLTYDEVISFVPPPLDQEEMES

For a further data set, the target named is PKBγ (Homo sapiens, UniProt Q9Y243). Description: Kinase selectivity panel. To be noted: read-out: percent of control activity of PKBγ. It is filed as biochemical. The procedure: as §2
Sequence of PKBγ (Q9Y243 whole entry, species assumed): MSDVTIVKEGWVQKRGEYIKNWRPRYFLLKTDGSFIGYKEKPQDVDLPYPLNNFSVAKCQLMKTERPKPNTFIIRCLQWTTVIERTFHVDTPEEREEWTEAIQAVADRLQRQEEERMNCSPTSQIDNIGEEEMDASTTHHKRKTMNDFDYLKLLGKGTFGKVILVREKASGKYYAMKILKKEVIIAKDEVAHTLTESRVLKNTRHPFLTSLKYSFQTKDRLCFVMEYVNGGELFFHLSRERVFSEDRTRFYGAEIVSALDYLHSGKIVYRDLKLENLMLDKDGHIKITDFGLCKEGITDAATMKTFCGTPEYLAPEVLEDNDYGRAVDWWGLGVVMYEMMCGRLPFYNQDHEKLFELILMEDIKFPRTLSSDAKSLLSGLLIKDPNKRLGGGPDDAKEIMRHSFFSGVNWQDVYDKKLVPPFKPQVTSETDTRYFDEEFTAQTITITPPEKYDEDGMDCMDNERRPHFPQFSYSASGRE
The target in a further data set is CDK2/cyclinE (Homo sapiens, UniProt P24941). Description: Kinase selectivity panel. It is filed as biochemical. To be noted: read-out: percent of control activity of CDK2/cyclinE. The procedure: as §2
For another data set, the system named is MEK kinase 1. Nature of the data set: Kinase selectivity panel. The conditions noted are these: 50 μM. It is filed as biochemical. As for the experimental part:
as §2

A further data set has as its target Protein kinase C ε (Homo sapiens, UniProt Q02156). Description: Kinase selectivity panel. The format is biochemical. To be noted: read-out: percent of control activity of Protein kinase C ε. As for the experimental part: as §2
In another data set the target is Fyn (Homo sapiens, UniProt P06241). Description: Kinase selectivity panel. The format is biochemical. To be noted: read-out: percent of control activity of Fyn. The procedure:
as §2

A further data set concerns the target Aurora-A (Homo sapiens, UniProt O14965). Description: Kinase selectivity panel. The format is biochemical. To be noted: read-out: percent of control activity of Aurora-A. The procedure: as §2
The next data set has as its target PKA (Homo sapiens, UniProt P17612). Nature of the data set: Kinase selectivity panel. It is filed as biochemical. The conditions noted are these: read-out: percent of control activity of PKA. As for the experimental part: as §2
Another data set has as its target P38 MAP kinase 2 (Homo sapiens, UniProt Q15759). Nature of the data set: Kinase selectivity panel. The format is biochemical. The conditions noted are these: read-out: percent of control activity of P38 MAP kinase 2. As for the experimental part:
as §2

In another data set the target is Ca^2+/calmodulin PK IV (Homo sapiens, UniProt Q16566). Description: Kinase selectivity panel. The conditions noted are these: read-out: percent of control activity of Ca^2+/calmodulin PK IV. The format is biochemical. As for the experimental part:
as §2

Another data set concerns the target Abl (Homo sapiens, UniProt P00519). Nature of the data set: Kinase selectivity panel. The format is biochemical. The conditions noted are these: read-out: percent of control activity of Abl. As for the experimental part: as §2
A further data set concerns the target CHK1 (Homo sapiens, UniProt O14757). Description: Kinase selectivity panel. The format is biochemical. To be noted: read-out: percent of control activity of CHK1. As for the experimental part: as §2
Setting [4] is: Table 6, 48 h, SRB, inhibition of cell proliferation, read-out: MCF-7 IC50.
[5] abbreviates: Table 7, 48 hours, mean ± sd, read-out: IC50 (μM) MCF-7.

These results are taken from patent publication US20100137315A1, “Sphingosine Kinase Inhibitors and Methods of Their Use” (APOGEE BIOTECHNOLOGY CORPORATION, priority 2005, published 2010).

Read-outs that look alike come from different tables or passages of the source.

Sequence of Protein kinase C ε (Q02156 whole entry): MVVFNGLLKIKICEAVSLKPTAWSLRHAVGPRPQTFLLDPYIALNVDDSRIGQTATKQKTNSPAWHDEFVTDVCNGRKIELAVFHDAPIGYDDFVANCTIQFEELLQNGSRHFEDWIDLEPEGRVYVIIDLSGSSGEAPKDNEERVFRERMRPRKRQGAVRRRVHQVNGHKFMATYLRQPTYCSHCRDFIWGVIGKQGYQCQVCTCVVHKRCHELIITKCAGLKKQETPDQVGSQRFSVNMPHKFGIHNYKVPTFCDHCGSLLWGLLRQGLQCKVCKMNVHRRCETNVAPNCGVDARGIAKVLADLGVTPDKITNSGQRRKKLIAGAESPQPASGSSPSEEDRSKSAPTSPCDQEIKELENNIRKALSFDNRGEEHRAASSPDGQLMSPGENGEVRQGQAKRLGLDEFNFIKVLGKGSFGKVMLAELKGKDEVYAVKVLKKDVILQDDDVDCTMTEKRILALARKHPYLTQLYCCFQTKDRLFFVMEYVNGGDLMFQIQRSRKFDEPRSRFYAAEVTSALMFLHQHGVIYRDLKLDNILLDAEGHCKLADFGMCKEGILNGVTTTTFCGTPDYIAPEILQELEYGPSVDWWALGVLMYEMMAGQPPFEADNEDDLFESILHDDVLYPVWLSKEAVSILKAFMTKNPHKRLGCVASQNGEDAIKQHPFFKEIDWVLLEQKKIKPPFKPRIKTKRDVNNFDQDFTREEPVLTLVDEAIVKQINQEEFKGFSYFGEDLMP
Sequence of Aurora-A (O14965 whole entry): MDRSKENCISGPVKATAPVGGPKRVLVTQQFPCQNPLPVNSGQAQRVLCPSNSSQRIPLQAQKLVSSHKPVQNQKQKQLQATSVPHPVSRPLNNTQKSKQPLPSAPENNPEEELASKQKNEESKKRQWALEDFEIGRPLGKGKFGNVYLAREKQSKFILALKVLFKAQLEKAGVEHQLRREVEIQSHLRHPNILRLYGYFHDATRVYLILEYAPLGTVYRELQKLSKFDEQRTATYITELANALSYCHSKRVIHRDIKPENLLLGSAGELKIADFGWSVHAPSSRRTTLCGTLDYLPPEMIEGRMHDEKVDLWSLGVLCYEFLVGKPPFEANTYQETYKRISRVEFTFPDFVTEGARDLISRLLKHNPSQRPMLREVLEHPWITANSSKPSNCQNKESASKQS
Sequence of CHK1 (O14757 whole entry, species assumed): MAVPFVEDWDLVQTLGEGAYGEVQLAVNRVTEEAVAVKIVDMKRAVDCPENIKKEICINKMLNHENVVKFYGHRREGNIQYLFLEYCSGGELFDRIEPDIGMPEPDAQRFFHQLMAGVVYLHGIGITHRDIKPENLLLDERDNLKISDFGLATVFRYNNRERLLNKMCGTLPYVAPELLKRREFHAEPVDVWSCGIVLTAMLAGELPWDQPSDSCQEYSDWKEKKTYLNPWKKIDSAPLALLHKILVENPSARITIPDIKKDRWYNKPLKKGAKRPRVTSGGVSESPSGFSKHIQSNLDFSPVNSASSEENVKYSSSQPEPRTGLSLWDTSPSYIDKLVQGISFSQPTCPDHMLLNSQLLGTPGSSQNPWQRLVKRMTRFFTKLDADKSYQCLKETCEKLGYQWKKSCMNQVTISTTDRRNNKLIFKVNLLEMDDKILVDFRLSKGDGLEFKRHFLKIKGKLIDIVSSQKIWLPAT
Sequence of Abl (P00519 whole entry, species assumed): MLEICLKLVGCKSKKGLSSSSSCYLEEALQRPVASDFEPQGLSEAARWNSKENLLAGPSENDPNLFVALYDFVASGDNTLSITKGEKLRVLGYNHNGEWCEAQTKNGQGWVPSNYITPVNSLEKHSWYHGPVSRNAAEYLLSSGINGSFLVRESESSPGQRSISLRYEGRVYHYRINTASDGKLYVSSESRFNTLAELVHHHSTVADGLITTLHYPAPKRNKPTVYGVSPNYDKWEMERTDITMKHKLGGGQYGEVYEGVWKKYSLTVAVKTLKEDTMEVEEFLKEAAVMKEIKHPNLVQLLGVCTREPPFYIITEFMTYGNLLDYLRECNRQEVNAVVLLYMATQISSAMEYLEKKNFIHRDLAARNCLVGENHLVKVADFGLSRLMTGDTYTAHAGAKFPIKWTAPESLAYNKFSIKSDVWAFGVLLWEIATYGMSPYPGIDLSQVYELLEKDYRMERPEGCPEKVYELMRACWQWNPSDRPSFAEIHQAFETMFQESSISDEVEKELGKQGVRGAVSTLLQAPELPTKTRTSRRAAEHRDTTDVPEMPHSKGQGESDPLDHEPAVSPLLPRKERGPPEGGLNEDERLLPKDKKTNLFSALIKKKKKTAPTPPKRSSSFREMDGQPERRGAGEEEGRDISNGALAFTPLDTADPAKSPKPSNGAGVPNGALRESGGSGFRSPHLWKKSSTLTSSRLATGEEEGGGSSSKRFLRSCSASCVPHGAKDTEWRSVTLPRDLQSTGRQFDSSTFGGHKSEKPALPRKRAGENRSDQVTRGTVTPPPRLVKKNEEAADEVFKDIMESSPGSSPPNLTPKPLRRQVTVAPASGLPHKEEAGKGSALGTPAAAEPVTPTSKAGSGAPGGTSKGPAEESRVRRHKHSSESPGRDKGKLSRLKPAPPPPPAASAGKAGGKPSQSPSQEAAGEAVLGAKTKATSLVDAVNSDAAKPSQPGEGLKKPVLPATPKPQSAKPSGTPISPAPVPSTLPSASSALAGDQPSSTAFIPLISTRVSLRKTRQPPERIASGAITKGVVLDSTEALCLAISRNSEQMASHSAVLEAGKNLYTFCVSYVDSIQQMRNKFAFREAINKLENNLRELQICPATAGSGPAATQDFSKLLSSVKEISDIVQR
Sequence of P38 MAP kinase 2 (Q15759 whole entry): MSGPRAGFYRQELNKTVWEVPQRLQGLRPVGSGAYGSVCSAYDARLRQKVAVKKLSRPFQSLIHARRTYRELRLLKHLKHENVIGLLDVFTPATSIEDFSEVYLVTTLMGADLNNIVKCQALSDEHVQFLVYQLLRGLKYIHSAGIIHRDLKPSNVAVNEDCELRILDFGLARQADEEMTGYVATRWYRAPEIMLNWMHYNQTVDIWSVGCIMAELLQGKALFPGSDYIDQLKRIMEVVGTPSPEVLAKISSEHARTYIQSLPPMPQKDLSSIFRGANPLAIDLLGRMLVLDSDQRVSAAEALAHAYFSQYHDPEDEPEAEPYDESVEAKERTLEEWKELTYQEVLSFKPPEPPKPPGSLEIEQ
Sequence of Fyn (P06241 whole entry, species assumed): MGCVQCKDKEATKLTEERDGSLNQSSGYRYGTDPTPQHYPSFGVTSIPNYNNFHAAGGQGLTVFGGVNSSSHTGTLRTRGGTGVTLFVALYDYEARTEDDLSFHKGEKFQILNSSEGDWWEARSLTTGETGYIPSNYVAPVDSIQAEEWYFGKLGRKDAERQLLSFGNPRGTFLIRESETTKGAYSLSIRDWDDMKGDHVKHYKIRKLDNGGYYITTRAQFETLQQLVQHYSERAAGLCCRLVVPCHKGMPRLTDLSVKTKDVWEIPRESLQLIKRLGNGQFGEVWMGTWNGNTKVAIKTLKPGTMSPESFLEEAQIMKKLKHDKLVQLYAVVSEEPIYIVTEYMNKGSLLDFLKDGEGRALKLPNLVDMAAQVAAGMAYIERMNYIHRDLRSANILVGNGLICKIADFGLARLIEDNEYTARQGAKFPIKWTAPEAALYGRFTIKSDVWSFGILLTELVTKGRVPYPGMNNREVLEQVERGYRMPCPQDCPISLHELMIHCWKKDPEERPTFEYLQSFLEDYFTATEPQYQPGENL

Usually IC50 stands for the concentration needed to halve the response being measured. In general, solubility refers to how much of the substance goes into solution per volume. On to `CCCC(=O)Oc1ccc(C=CC(=O)Nc2nc(-c3ccc(Cl)cc3)cs2)cc1OC` [Compound 8, Butyric acid 4-{2-[4-(4-chloro-phenyl)-thiazol-2-ylcarbamoyl]-vinyl}-2-methoxy-phenyl ester], for which the “inhibition of tumor growth relative to controls” value in data set [1] is on record as 66%. In data set [1], the In vivo activity result was “active - ip and po”. In addition, the “oral doses with antitumor activity” value in data set [1] (oral gavage 3.5-100 mg/kg on odd numbered days) is listed as ≥ 10 mg/kg. Moreover, the “toxicity to the mice in the dose-response study” value in [1] (oral, any dose (3.5-100 mg/kg)) is “No toxicity”. Further, the half-inhibitory concentration (IC50) in the data set with Hep-G2 (liver) was 81.5 ± 38.9 µM; in the data set with Caco-2 (colon), 2.6 ± 1.2 µM; in the data set with T24 (bladder) it was 25.2 ± 2.9 µM; with 1025LU (Melanoma) it was 30.1 ± 3.9 µM; in the data set on HT-29 (colon), 54.7 ± 0.1 µM; with SK-OV-3 (ovary) it was 23.7 ± 3.2 µM. Besides, the half-inhibitory concentration (IC50) in the data set on MDA-MB-231 (breast, ER−) is 30.1 ± 3.9 µM; with A-498 (Kidney), 38.3 ± 7.7 µM; in the data set with DU145 (prostate) it was 21.2 ± 1.3 µM; in data set [3] (setting [4]) it was 6.6 µM; in data set [3] (setting [5]), 25.2 ± 4.7 µM; in the data set on Panc-1 (pancreas) it was 19 ± 2.5 µM. In addition, the solubility in “physchem” (read-out: solubility) is ≥ 15 mg/mL; in “physchem” (read-out: solubility (molar)), 30 to 40 mM. In addition, the “toxicity, oral administration” value in [2] is “without noticeable toxicity”.

For the compound `Clc1ccc(-c2csc(NCc3ccccc3)n2)cc1` [Compound 73, Benzyl-[4-(4-chloro-phenyl)-thiazol-2-yl]-amine], in [1], the “inhibition of tumor growth relative to controls” value turned out to be 69%. In addition, the In vivo activity entry in data set [1] is listed as “active - ip”. Moreover, the IC50 came out at 13.8 ± 8.7 µM with Hep-G2 (liver); 6.3 ± 5.2 µM in the data set on Caco-2 (colon); 22.7 ± 4.8 µM with T24 (bladder); 8.3 ± 2.4 µM with 1025LU (Melanoma); 29.9 ± 9.4 µM in the data set with HT-29 (colon); 10.2 ± 0.3 µM in the data set on SK-OV-3 (ovary). In addition, the IC50 worked out at 26.6 ± 6.7 µM in the data set on MDA-MB-231 (breast, ER−); 4 ± 1.9 µM with A-498 (Kidney); 6.5 ± 3.6 µM with DU145 (prostate); 8.3 µM in [3] (setting [4]); 1.8 ± 0.7 µM in data set [3] (setting [5]); 6.7 ± 2.4 µM with Panc-1 (pancreas). In addition, the solubility was ≥ 15 mg/mL in “physchem” (read-out: solubility) and 30 to 40 mM in the data set “physchem” (read-out: solubility (molar)). The remaining activity at 50 µM on P38 MAP kinase 1 was 88 ± 1%; at PKBγ, 100 ± 10%; at CDK2/cyclinE it was 102 ± 7%; on Protein kinase C ε, 91 ± 2%; on Fyn it was 102%; at Aurora-A, 100%. Also, the remaining activity at 50 µM came to 94 ± 4% at PKA; 101% at P38 MAP kinase 2; 113 ± 3% on Ca^2+/calmodulin PK IV; 100 ± 1% on Abl; 124% at CHK1. For the same compound, the “percent of control activity of MEK kinase 1” value with MEK kinase 1 turned out to be 104 ± 3%. In [2], the “toxicity, oral administration” value is “without noticeable toxicity”.
